In PMC12216609, “Inhibitors of eIF1A-ribosome interaction unveil uORF-dependent regulation of translation initiation and antitumor and antiviral effects” (The EMBO Journal, 2025):
“And” between values parts separate entries of the source, which are not always exact repeats. Equal values may be shown once. Read-outs that look alike come from different tables or passages of the source.

Legend:
[1] = biological target: T1, eIF1A (Homo sapiens, UniProt P47813); format: binding; details: for fluorescence ratio, eIF1A: background-corrected, relative to DMSO or lowest 1Ai concentration, replicate columns; for WT eIF1A IC50: fluorescence binding; for IC50 concentration (µM), WT eIF1A: summary table, fluorescence binding assay
T1 construct: His-bdSUMO (cleaved yes); made in house; host or cells: E. coli BL-21
T1 sequence (P47813 whole entry): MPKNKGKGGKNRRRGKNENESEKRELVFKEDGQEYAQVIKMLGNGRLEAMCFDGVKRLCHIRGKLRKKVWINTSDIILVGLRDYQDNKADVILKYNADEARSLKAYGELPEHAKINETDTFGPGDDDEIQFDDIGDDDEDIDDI

[2] = system: cap-proximal AUG GFP reporter in HEK293T cells; format: cell-based; details: GFP WB densitometry; 20 µM overnight; dmso 0.965946;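 also: ratio of upstream to downstream AUG initiation products on GFP Western blot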
[3] = system: CUG/GUG vs AUG start codon luciferase reporters in HEK293T cells; test: Near-cognate AUG starting codon fidelity reporter assay (GUG, CUG vs AUG); format: cell-based; details: for average CUG and GUG / average CUG and GUG relative to DMSO / CUG Average / GUG Average: NUG experiment; for CUG Average: CUG vs AUG reporter; for GUG Average: GUG vs AUG reporter; for NUG (Final data, Fig. 1E): average CUG and GUG relative to DMSO, 20 µM overnight; for GUG vs AUG data (%): individual repeat; for GUG vs AUG (%) Average: summary average of repeats, DMSO control average […]; for CUG vs AUG (%): CUG start codon reporter relative to AUG reporter (AUG = 100); for CUG vs AUG (%) / GUG vs AUG (%): single-experiment calculation; for GUG vs AUG (%): GUG start codon reporter relative to AUG reporter (AUG = 100)
[4] = biological target: T2, RPS10 (Homo sapiens, UniProt P46783); format: binding
T2 construct: made in house; host or cells: E. coli BL-21

[5] = system: IRF7 5'UTR firefly luciferase reporter in HEK293T cells; details: for Reference vs IRF7 (Final data, Fig. 1E): 1/Result, relative to DMSO; for LONG (summary - All), normalized to DMSO / Long: Normalized to average DMSO: Long reporter; for LONG (summary - All), normalized to DMSO / SHORT (summary - All), normalized to DMSO: individual replicates, outliers excluded, DMSO = 1; for Long: Normalized to average DMSO: includes values excluded as outliers; for average ( long vs short ratio): summary - All; for Long 5'UTR reporter luciferase activity, normalized to DMSO (=1), single replicates: compound at 10 µM, left data block (Long), source data of Fig 1C;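 as to all read-outs here: luciferase signal corrected by a co-transfected GFP reporter for transfection efficiency, read after overnight compound exposure, with Long and Short reporters differing in 5'UTR length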
[6] = summary table, fluorescence binding assay, read-out: IC50 concentration (µM), RPS10
[7] = data section, GFP-corrected, 20 µM, per experiment
[8] = compound at 10uM (summary head)
[9] = read-out: IC50 (line under RPS10 binding data)
[10] = compound at 20uM (summary head)

Row | Structure (SMILES) | fluorescence ratio, eIF1A ([1]; 1Ai conc. 0.25 uM) | fluorescence ratio, eIF1A ([1]; 1Ai conc. 0.5 uM) | fluorescence ratio, eIF1A ([1]; 1Ai conc. 1 uM) | fluorescence ratio, eIF1A ([1]; 1Ai conc. 2 uM) | fluorescence ratio, eIF1A ([1]; 1Ai conc. 4 uM) | fluorescence ratio, eIF1A ([1]; 1Ai conc. 8 uM) | fluorescence ratio, eIF1A ([1]; 1Ai conc. 16 uM) | fluorescence ratio, eIF1A ([1]; 1Ai conc. 32 uM) | fluorescence ratio, eIF1A ([1]; 1Ai conc. 64 uM) | fluorescence ratio, eIF1A ([1]; 1Ai conc. 256 uM) | WT eIF1A IC50 [1] | IC50 concentration (µM), WT eIF1A [1] | US/DS ratio, average [2] | average CUG and GUG [3] | average CUG and GUG relative to DMSO [3] | CUG Average [3] | GUG Average [3] | NUG (Final data, Fig. 1E) [3] | IC50 [4, 6] [µM] | Reference vs IRF7 (Final data, Fig. 1E) ([5]; 20 µM) | also measured
1 | O=S(=O)(c1ccccc1)N1CCN(C2c3ccccc3-c3ccccc32)CC1 [1Ai-9025] | 0.9827 and 0.9579 | 0.9655 and 0.9562 | 0.9303 and 0.9366 | 0.9516 and 0.9059 | 0.9297 and 0.9235 | 0.9058 and 0.9493 | 0.9688 and 0.9828 | 0.9874 and 1.077 | 1.153 and 1.164 | 1.25 and 1.3257 | No binding | No binding | 0.7517 | 4.366 | 0.9681 | 6.84 | 1.892 | 0.968 | 4.8 | 1.762 | GUG vs AUG data (%) ([3]; compound at 20uM): 2.56% and 1.57% and 2.32% and 1.11%; GUG vs AUG (%) Average ([3]; compound at 20uM): 1.89%; LONG (summary - All), normalized to DMSO ([5]; 20 µM): 0.59 and 0.94 and 0.66 and 0.50; SHORT (summary - All), normalized to DMSO ([5]; Short reporter, 20 µM): 1.30 and 0.73 and 1.51; Long: Normalized to average DMSO [5, 7]: 0.5873 and 0.9413 and 0.6597 and 0.4965; average ( long vs short ratio) ([5]; 20 µM): 0.568
2 | COc1ccc2oc(C(=O)OC(C)C(=O)Nc3sccc3C(N)=O)c(C)c2c1 (stereo not shown) [1Ai-3044] | 0.7896 and 0.9625 | 0.8401 and 0.9684 | 0.783 and 0.965 | 1.321 and 0.9132 | 1.411 and 0.9093 | 1.361 and 0.8279 | 1.171 and 0.7406 | 1.256 and 0.7959 | 1.351 and 0.8195 | 1.419 and 0.8072 | No binding | No binding | 0.9145 | 5.9112 | 1.3106 | 9.682 | 2.141 | 1.311 |  | 0.527 | CUG vs AUG (%) [3, 8]: 8.177%; GUG vs AUG (%) [3, 8]: 1.952%; GUG vs AUG data (%) ([3]; compound at 10uM): 2.24% and 1.90% and 2.01% and 2.41%; GUG vs AUG (%) Average ([3]; compound at 10uM): 2.14%; RPS10 fluorescence ratio to control ([4]; 1Ai conc. 0.25 uM): 1; RPS10 fluorescence ratio to control ([4]; 1Ai conc. 0.5 uM): 1.015; RPS10 fluorescence ratio to control ([4]; 1Ai conc. 2 uM): 1.108; RPS10 fluorescence ratio to control ([4]; 1Ai conc. 4 uM): 1.108; RPS10 fluorescence ratio to control ([4]; 1Ai conc. 8 uM): 1.07; RPS10 fluorescence ratio to control ([4]; 1Ai conc. 16 uM): 0.983; RPS10 fluorescence ratio to control ([4]; 1Ai conc. 32 uM): 0.9928; RPS10 fluorescence ratio to control ([4]; 1Ai conc. 64 uM): 1.135; RPS10 fluorescence ratio to control ([4]; 1Ai conc. 256 uM): 1.327; RPS10 IC50 ([4]; fluorescence binding): No binding; IC50 concentration (µM), RPS10 ([4]; summary table, fluorescence binding assay): No binding; LONG (summary - All), normalized to DMSO ([5]; 10 µM): 0.55 and 1.64 and 1.20 and 0.82 and 1.11; SHORT (summary - All), normalized to DMSO ([5]; Short reporter, 10 µM): 0.72 and 0.67 and 0.70 and 0.63; Long 5'UTR reporter luciferase activity, normalized to DMSO (=1), single replicates [5]: 0.5511 and 1.639 and 1.204 and 0.8163 and 1.106; average ( long vs short ratio) ([5]; 10 µM): 1.568
3 | O=c1cc(CN2CCOCC2)occ1OCCCCCSc1ccnc2cc(C(F)(F)F)ccc12 [1Ai-5730] | 1.04 and 0.9394 | 1.062 and 0.9801 | 1.0621 and 0.9646 | 1.055 and 0.9796 | 1.077 and 1.03 | 0.8919 and 0.9326 | 0.9465 and 0.9064 | 0.9379 and 0.8516 | 0.7437 and 0.7726 |  | No binding | No binding | 0.4467 | 3.9567 | 0.8773 | 6.145 | 1.768 | 0.877 | 22.1 | 1.720 | CUG vs AUG (%) [3, 8]: 9.994%; GUG vs AUG (%) [3, 8]: 3.756%; GUG vs AUG data (%) ([3]; compound at 10uM): 1.66% and 2.32% and 1.73% and 1.38%; GUG vs AUG (%) Average ([3]; compound at 10uM): 1.77%; RPS10 fluorescence ratio to control ([4]; 1Ai conc. 0.25 uM): 1; RPS10 fluorescence ratio to control ([4]; 1Ai conc. 0.5 uM): 0.9752; RPS10 fluorescence ratio to control ([4]; 1Ai conc. 1 uM): 0.9984; RPS10 fluorescence ratio to control ([4]; 1Ai conc. 2 uM): 0.9868; RPS10 fluorescence ratio to control ([4]; 1Ai conc. 4 uM): 1.11; RPS10 fluorescence ratio to control ([4]; 1Ai conc. 8 uM): 1.2215; RPS10 fluorescence ratio to control ([4]; 1Ai conc. 16 uM): 1.217; RPS10 fluorescence ratio to control ([4]; 1Ai conc. 32 uM): 1.212; RPS10 fluorescence ratio to control ([4]; 1Ai conc. 256 uM): 1.367; IC50 [4, 9]: 22.1 µM; IC50 ([4]; read-out: RPS10 IC50): 22.1 µM; LONG (summary - All), normalized to DMSO ([5]; 10 µM): 0.65 and 0.52 and 0.40 and 0.70; SHORT (summary - All), normalized to DMSO ([5]; Short reporter, 10 µM): 0.89 and 1.17 and 0.87; Long 5'UTR reporter luciferase activity, normalized to DMSO (=1), single replicates [5]: 0.6956; Short: Normalized to average DMSO ([5]; data section, Short reporter, GFP-corrected, 10 µM, per experiment): 0.892 and 1.021 and 1.1679; average ( long vs short ratio) ([5]; 10 µM): 0.581
4 | Cc1ccc(C)n1-c1cc([N+](=O)[O-])ccc1N1CCN(C(=O)c2ccccc2)CC1 [1Ai-9008] | 0.8521 and 1 | 0.8814 and 1.016 | 0.8675 and 0.9766 | 1.139 and 0.9182 | 1.153 and 0.9421 | 0.9831 and 0.8499 | 0.926 and 0.7716 | 0.9353 and 0.7367 | 1.131 and 0.7322 | 1.254 and 0.8135 | No binding | No binding | 0.5847 | 8.448 | 1.873 | 12.6998 | 4.196 | 1.873 | 9.9 | 0.775 | CUG vs AUG (%) [3, 10]: 13.0714%; GUG vs AUG (%) [3, 10]: 3.675%; GUG vs AUG data (%) ([3]; compound at 20uM): 4.42% and 4.68% and 2.86% and 4.83%; GUG vs AUG (%) Average ([3]; compound at 20uM): 4.20%; RPS10 fluorescence ratio to control ([4]; 1Ai conc. 0.25 uM): 1; RPS10 fluorescence ratio to control ([4]; 1Ai conc. 0.5 uM): 0.9583; RPS10 fluorescence ratio to control ([4]; 1Ai conc. 1 uM): 0.9477; RPS10 fluorescence ratio to control ([4]; 1Ai conc. 2 uM): 0.9687; RPS10 fluorescence ratio to control ([4]; 1Ai conc. 4 uM): 0.9804; RPS10 fluorescence ratio to control ([4]; 1Ai conc. 8 uM): 0.9597; RPS10 fluorescence ratio to control ([4]; 1Ai conc. 16 uM): 0.9394; RPS10 fluorescence ratio to control ([4]; 1Ai conc. 32 uM): 1.009; RPS10 fluorescence ratio to control ([4]; 1Ai conc. 256 uM): 1.212; IC50 [4, 9]: 9.9 µM; IC50 ([4]; read-out: RPS10 IC50): 9.9 µM; LONG (summary - All), normalized to DMSO ([5]; 20 µM): 0.81 and 0.44 and 0.52 and 0.48; SHORT (summary - All), normalized to DMSO ([5]; Short reporter, 20 µM): 0.66 and 0.59 and 0.24 and 0.26; Long: Normalized to average DMSO [5, 7]: 0.8135 and 0.4384 and 0.5246 and 0.4822; average ( long vs short ratio) ([5]; 20 µM): 1.290
